These results are taken from ChEMBL document CHEMBL3046800, “Tricyclic cyanoguanidines: synthesis, site of action and insecticidal activity of a novel class of reversible acetylcholinesterase inhibitors” (2002).

Holding throughout (format): functional
One experiment has as its system Peregrinus maidis. Briefly: Insecticidal activity against Peregrinus maidis (corn hopper) infested compound-pretreated corn seed measured 6 days post-infestation.
The subject of the next experiment is Nephotettix cincticeps. Briefly: Insecticidal activity against Nephotettix cincticeps (green rice leafhopper) infested in compound-pretreated rice seedling measured 6 days post-infestation.
For the next experiment, the system named is Nilaparvata lugens. Briefly: Insecticidal activity against Nilaparvata lugens (brown planthopper) infested in compound-pretreated rice seedling measured 6 days post-infestation.

`CC12CC(c3ccccc3O1)N(Cc1ccccn1)/C(=N/C#N)N2` (stereo not drawn): the values for the LC80 in the experiment on Peregrinus maidis, in the experiment on Nephotettix cincticeps and in the experiment on Nilaparvata lugens were below 50 ppm, above 100 ppm and below 100 ppm, respectively.
For `CC12CC(N/C(=N/C#N)N1)c1cc(C(C)(C)C)cc(C(C)(C)C)c1O2` (stereo not drawn) the same measures were above 250 ppm, above 100 ppm and above 100 ppm.
On to `CC(=O)N1/C(=N\C#N)NC2CC1Cc1ccccc12` (stereo not drawn), for which the LC80 in the experiment on Peregrinus maidis is recorded as below 10 ppm; with Nilaparvata lugens, above 100 ppm.
As for `COC(=O)N1/C(=N/C#N)NC2(C)CC1c1ccc(F)cc1O2` (stereo not drawn), the LC80 in the experiment on Peregrinus maidis was below 250 ppm; in the experiment on Nephotettix cincticeps it was below 10 ppm.
For `CC12CC(N/C(=N/C#N)N1)c1cc(OC(F)(F)F)ccc1O2` (stereo not drawn), the LC80 in the experiment with Peregrinus maidis is on record as above 250 ppm; in the experiment on Nephotettix cincticeps, above 100 ppm; in the experiment with Nilaparvata lugens it was above 100 ppm.
For the compound `CCC(=O)N1/C(=N/C#N)NC2(C)CC1c1ccccc1O2` (stereo not drawn), the LC80 with Peregrinus maidis was below 250 ppm; in the experiment on Nephotettix cincticeps it was below 100 ppm; in the experiment with Nilaparvata lugens it was below 10 ppm.
For `CC12CC(N/C(=N/C#N)N1)c1cc([N+](=O)[O-])ccc1O2` (stereo not drawn) the same measures were below 250 ppm, below 10 ppm and above 100 ppm.
With `CCC1C2N/C(=N/C#N)NC1(C)Oc1ccccc12` (stereo not drawn), the LC80 is above 250 ppm in the experiment with Peregrinus maidis, below 10 ppm with Nephotettix cincticeps and above 100 ppm with Nilaparvata lugens.
`CC12CC(N/C(=N/C#N)N1)c1cc(Cl)ccc1O2` (stereo not drawn): the figures for the LC80 with Peregrinus maidis, in the experiment with Nephotettix cincticeps and with Nilaparvata lugens were above 250 ppm, above 100 ppm and above 100 ppm, respectively.
For the compound `CN1/C(=N/C#N)N(C)C2(C)CC1c1ccccc1O2` (stereo not drawn), the LC80 with Peregrinus maidis is above 250 ppm; in the experiment with Nephotettix cincticeps, above 100 ppm; in the experiment with Nilaparvata lugens, below 10 ppm.
On to `CC1c2ccccc2C2CC1N/C(=N\C#N)N2` (stereo not drawn), for which the LC80 in the experiment on Peregrinus maidis is on record as below 2.5 ppm; with Nephotettix cincticeps, below 10 ppm.
As for `COc1cccc2c1C1CC(C)(N/C(=N\C#N)N1)O2` (stereo not drawn), the LC80 is below 50 ppm in the experiment on Peregrinus maidis, above 100 ppm in the experiment with Nephotettix cincticeps and above 100 ppm in the experiment with Nilaparvata lugens.
Consider `CC12CC(N/C(=N/C#N)N1)c1ccc(Cl)cc1O2` (stereo not drawn), for which the LC80 was below 50 ppm with Peregrinus maidis, above 100 ppm with Nephotettix cincticeps and below 100 ppm in the experiment with Nilaparvata lugens.
On to `CC(=O)N1/C(=N/C#N)NC2Cc3ccccc3C1C2` (stereo not drawn), for which the values for the LC80 with Peregrinus maidis and in the experiment with Nephotettix cincticeps were above 250 ppm and below 10 ppm, respectively.
As for `COC(=O)N1/C(=N/C#N)NC2(C)CC1c1ccccc1O2` (stereo not drawn), the LC80 is above 250 ppm in the experiment on Peregrinus maidis, below 10 ppm in the experiment on Nephotettix cincticeps and below 10 ppm with Nilaparvata lugens.
Regarding `CC12CC(N/C(=N/C#N)N1)c1cc(Cl)cc(Cl)c1O2` (stereo not drawn), the LC80 is recorded as above 250 ppm in the experiment on Peregrinus maidis, above 100 ppm in the experiment with Nephotettix cincticeps and above 100 ppm with Nilaparvata lugens.
Turning to `C[C@H]1[C@H]2N/C(=N/C#N)N[C@]1(C)Oc1ccccc12` (relative stereo), the LC80 with Peregrinus maidis is recorded as above 250 ppm; with Nephotettix cincticeps, below 1 ppm; in the experiment on Nilaparvata lugens, below 100 ppm.
Take `N#C/N=C1\NC2Cc3ccccc3C(C2)N1` (stereo not drawn): the LC80 in the experiment on Peregrinus maidis is on record as below 2.5 ppm; in the experiment on Nephotettix cincticeps, below 10 ppm; in the experiment with Nilaparvata lugens, below 100 ppm.
As for `CC12CC(c3ccccc3O1)N(C[Si](C)(C)C)/C(=N/C#N)N2` (stereo not drawn), the LC80 was above 250 ppm in the experiment with Peregrinus maidis, above 100 ppm in the experiment with Nephotettix cincticeps and below 100 ppm in the experiment with Nilaparvata lugens.
As for `CCC1C2N/C(=N\C#N)NC1c1ccccc1O2` (mixture of isomers), the LC80 is recorded as below 250 ppm in the experiment on Peregrinus maidis and above 100 ppm in the experiment on Nilaparvata lugens.
For `CC(=O)N1/C(=N/C#N)NC2(C)CC1c1ccc(F)cc1O2` (stereo not drawn), the LC80 in the experiment with Peregrinus maidis is reported as above 250 ppm; with Nephotettix cincticeps, above 100 ppm; in the experiment with Nilaparvata lugens, above 100 ppm.
As for `CC12CC(c3ccccc3O1)N(S(C)(=O)=O)/C(=N/C#N)N2` (stereo not drawn), the results for the LC80 in the experiment with Peregrinus maidis, in the experiment on Nephotettix cincticeps and with Nilaparvata lugens were below 50 ppm, above 100 ppm and above 100 ppm, respectively.
Take `COc1ccc2c(c1OC)OC1(C)CC2N/C(=N/C#N)N1` (stereo not drawn): the LC80 in the experiment on Peregrinus maidis is listed as below 250 ppm; in the experiment with Nephotettix cincticeps it was above 100 ppm; in the experiment with Nilaparvata lugens it was above 100 ppm.
As to `CC12CC(N/C(=N/C#N)N1)c1cc(Br)cc(Br)c1O2` (stereo not drawn), the LC80 with Peregrinus maidis is given as below 10 ppm; with Nephotettix cincticeps it was above 100 ppm; in the experiment on Nilaparvata lugens it was above 100 ppm.
For the compound `CC12CC(N/C(=N/C#N)N1)c1c(Cl)cc(Cl)cc1O2` (stereo not drawn), the LC80 with Peregrinus maidis is given as below 250 ppm; in the experiment on Nephotettix cincticeps, below 10 ppm; in the experiment on Nilaparvata lugens, above 100 ppm.
In the same order, the values of `CCC12CC(N/C(=N/C#N)N1)c1ccccc1O2` (stereo not drawn) are above 250 ppm, above 100 ppm and below 10 ppm.
As for `N#C/N=C1\NC2CC(N1)c1ccccc1O2` (stereo not drawn), the LC80 in the experiment with Peregrinus maidis is below 50 ppm; with Nephotettix cincticeps it was above 100 ppm; with Nilaparvata lugens it was below 100 ppm.
For `C=CCN1/C(=N/C#N)NC2(C)CC1c1ccccc1O2` (stereo not drawn) the same measures were above 250 ppm, above 100 ppm and below 100 ppm.
In the same order, the values of `N#C/N=C1/NC2CC(c3ccccc3)(N1)Oc1ccccc12` (stereo not drawn) are below 50 ppm, below 10 ppm and above 100 ppm.
Turning to `CC12CC(c3ccccc3O1)N(C(=O)C(F)(F)F)/C(=N/C#N)N2` (stereo not drawn), the LC80 in the experiment on Peregrinus maidis was below 250 ppm; in the experiment with Nephotettix cincticeps, above 100 ppm; with Nilaparvata lugens it was above 100 ppm.
As to `C[C@@H]1[C@H]2N/C(=N/C#N)N[C@]1(C)Cc1ccccc12` (relative stereo), the LC80 in the experiment on Peregrinus maidis is listed as below 10 ppm; in the experiment on Nilaparvata lugens, below 1 ppm.
Turning to `CCC12N/C(=N\C#N)NC(c3ccccc3O1)C2C` (mixture of isomers), the LC80 with Peregrinus maidis was above 250 ppm; in the experiment on Nephotettix cincticeps it was above 100 ppm; in the experiment on Nilaparvata lugens, above 100 ppm.
With `CC12CC(N/C(=N/C#N)N1)c1cc(N)ccc1O2` (stereo not drawn), the values for the LC80 in the experiment on Peregrinus maidis, in the experiment on Nephotettix cincticeps and in the experiment on Nilaparvata lugens were above 250 ppm, below 10 ppm and above 100 ppm, respectively.
For `COC(=O)CN1/C(=N/C#N)NC2(C)CC1c1ccccc1O2` (stereo not drawn) the same measures were below 50 ppm, below 100 ppm and below 100 ppm.
In the case of `CC12CC(N/C(=N/C#N)N1)c1ccc(F)cc1O2` (stereo not drawn), the LC80 in the experiment with Peregrinus maidis is reported as below 250 ppm; in the experiment on Nephotettix cincticeps, above 100 ppm; in the experiment with Nilaparvata lugens, below 10 ppm.
For `Cc1ccc2c(c1)C1CC(C)(N/C(=N\C#N)N1)O2` (stereo not drawn) the same measures were above 250 ppm, below 100 ppm and above 100 ppm.
In the same order, the values of `CCCC(=O)N1/C(=N/C#N)NC2(C)CC1c1ccccc1O2` (stereo not drawn) are above 250 ppm, below 100 ppm and below 10 ppm.
In the case of `C[C@@H]1[C@H]2N/C(=N/C#N)N[C@]1(C)Oc1ccccc12` (relative stereo), the LC80 is recorded as below 50 ppm in the experiment on Peregrinus maidis, above 100 ppm with Nephotettix cincticeps and below 1 ppm in the experiment on Nilaparvata lugens.
In the same order, the values of `CC(=O)N1/C(=N/C#N)NC2(C)CC1c1ccccc1O2` (stereo not drawn) are below 250 ppm, below 10 ppm and below 10 ppm.
Regarding `C#CCN1/C(=N/C#N)NC2(C)CC1c1ccccc1O2` (stereo not drawn), the LC80 is above 250 ppm in the experiment on Peregrinus maidis, below 10 ppm in the experiment with Nephotettix cincticeps and below 10 ppm in the experiment on Nilaparvata lugens.
As to `CN1/C(=N/C#N)NC2(C)CC1c1ccc(F)cc1O2` (stereo not drawn), the LC80 in the experiment on Peregrinus maidis is on record as below 10 ppm.
On to `C[C@H]1[C@H]2Cc3ccccc3[C@@H]1N/C(=N/C#N)N2` (relative stereo), for which the LC80 in the experiment on Peregrinus maidis is listed as below 250 ppm; in the experiment on Nilaparvata lugens, below 10 ppm.
As to `CN1/C(=N/C#N)NC2(C)CC1c1ccccc1O2` (stereo not drawn), the LC80 in the experiment with Peregrinus maidis was above 250 ppm; in the experiment on Nephotettix cincticeps, below 100 ppm; with Nilaparvata lugens, below 10 ppm.
For `CC(C)C(=O)N1/C(=N/C#N)NC2(C)CC1c1ccccc1O2` (stereo not drawn) the same measures were above 250 ppm, above 100 ppm and below 10 ppm.
In the same order, the values of `CC12CC(N/C(=N/C#N)N1)c1cccc(F)c1O2` (stereo not drawn) are above 250 ppm, above 100 ppm and above 100 ppm.
As to `CC12CC(c3ccccc3O1)N(Cc1ccccc1)/C(=N/C#N)N2` (stereo not drawn), the values for the LC80 with Peregrinus maidis, in the experiment on Nephotettix cincticeps and in the experiment with Nilaparvata lugens were above 250 ppm, below 100 ppm and above 100 ppm, respectively.
In the same order, the values of `CCN1/C(=N/C#N)NC2(C)CC1c1ccccc1O2` (stereo not drawn) are above 250 ppm, above 100 ppm and below 10 ppm.
Consider `CC1C2N/C(=N\C#N)NC1c1ccccc1O2` (mixture of isomers), for which the LC80 in the experiment on Peregrinus maidis is above 250 ppm; in the experiment with Nephotettix cincticeps, above 100 ppm; with Nilaparvata lugens, below 100 ppm.
In the case of `C[C@H]1[C@H]2N/C(=N/C#N)N[C@]1(C)Cc1ccccc12` (relative stereo), the values for the LC80 in the experiment with Peregrinus maidis and in the experiment with Nephotettix cincticeps were below 2.5 ppm and below 1 ppm, respectively.
Turning to `Cc1cccc2c1OC1(C)CC2N/C(=N/C#N)N1` (stereo not drawn), the LC80 in the experiment on Peregrinus maidis is above 250 ppm; in the experiment with Nephotettix cincticeps, above 100 ppm; with Nilaparvata lugens, above 100 ppm.
Regarding `C[C@@H]1[C@H]2Cc3ccccc3[C@@H]1N/C(=N/C#N)N2` (relative stereo), the values for the LC80 in the experiment on Peregrinus maidis, in the experiment with Nephotettix cincticeps and with Nilaparvata lugens were below 250 ppm, below 0.1 ppm and below 100 ppm, respectively.
